PubChem BioAssay (NCI)
Where “and” joins values, the source holds several entries; their conditions need not be identical. Equal values may be shown once.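 1) Cells in 96-well plates. 2) Compound, 48 h, 5 concentrations. 3) Linear interpolation between surrounding doses. 4) Unreached endpoint = highest concentration. Abbreviation: GI50, concentration required for 50% inhibition of growth. Definition used: TGI = concentration required for complete inhibition of growth.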

Experiments:
Assay in all cases: inhibition of tumour cell growth, NCI panel, 48 h
[1] = test system: U251 CNS
[2] = test system: NCI-H23 lung
[3] = test system: CCRF-CEM leukemia
[4] = test system: SNB-19 CNS
[5] = test system: SR leukemia
[6] = test system: MOLT-4 leukemia
[7] = test system: LXFL 529 NSCLC
[8] = test system: HCC-2998 colon
[9] = test system: M19-MEL melanoma
[10] = test system: T-47D breast

CCCCCCCCC/C=C1\CCC(CN(C)C)C1=O (centres undefined) was tested, and the TGI [1] was 3.02 µM, the TGI [2] was 5.61 µM and the TGI [3] was 4.82 µM. The TGI [4] was 18.1 µM, the TGI [5] was 6.77 µM and the TGI [6] was 8.49 µM. It also gave a TGI [7] of 2.64 µM, a TGI [8] of 10.5 µM and a TGI [9] of 3.87 µM.

COc1cccc(NC(=O)CC(=O)N2N=C(n3ccc4ccccc43)CC2c2ccccc2)c1 (centres undefined) showed a TGI [1] of over 100 µM, a TGI [2] of over 100 µM and a TGI [3] of over 100 µM. It also gave a TGI [4] of over 100 µM, a TGI [6] of over 100 µM and a TGI [7] of over 100 µM. For the same compound, the TGI [8] was over 100 µM and the TGI [9] was over 100 µM.

With COc1cccc(NC(=O)CC(=O)N2N=C(N3c4ccccc4Sc4ccccc43)CC2c2ccccc2)c1 (centres undefined) the TGI [1] was over 100 µM, the TGI [2] was over 100 µM and the TGI [4] was over 100 µM. For the same compound, the TGI [5] was over 100 µM, the TGI [6] was over 100 µM and the TGI [7] was over 100 µM. For the same compound, the TGI [8] was over 100 µM and the TGI [9] was over 100 µM.

In the case of O=C(O)C(CS)NCc1c2ccccc2nc2ccccc12 (centres undefined), the TGI [1] is reported as over 100 µM, the TGI [2] is reported as over 100 µM and the TGI [3] is reported as 74.6 µM. For the same compound, the TGI [4] was over 100 µM, the TGI [5] was 97.3 µM and the TGI [6] was over 100 µM. It also gave a TGI [7] of over 100 µM, a TGI [8] of over 100 µM and a TGI [9] of 89.4 µM.

With CC(=O)O[C@H]1CCC2[C@@H]3CCC4c5nonc5CC[C@]4(C)C3CC[C@@]21C (some centres undefined) the TGI [1] was over 10 µM, the TGI [2] was over 10 µM and the GI50 [3] was over 100 µM. It also gave a TGI [3] of over 100 µM, a TGI [4] of over 10 µM and a TGI [6] of over 10 µM. It also gave a TGI [7] of over 10 µM, a GI50 [8] of over 100 µM and a TGI [8] of over 100 µM. The GI50 [9] was over 100 µM and the TGI [9] was over 100 µM.

For O=c1c(O)c(-c2ccc(O)c(O)c2)oc2cc(O)cc(O)c12, the GI50 [1] was 8.68 µM, the TGI [1] was over 100 µM and the GI50 [2] was 9.65 µM. The TGI [2] was 50 µM, the GI50 [3] was 10.7 µM and the TGI [3] was > 100 µM and 87.7 µM. For the same compound, the GI50 [4] was 13.1 µM, the TGI [4] was over 100 µM and the GI50 [5] was 3.57 µM. It also gave a TGI [5] of over 100 µM, a GI50 [6] of 13 µM and a TGI [6] of over 100 µM. The TGI [7] was over 100 µM, the GI50 [8] was 16 µM and the TGI [8] was 51 µM and > 100 µM. For the same compound, the TGI [9] was over 100 µM, the GI50 [10] was 23.8 µM and the TGI [10] was over 100 µM.

For CC(C)(c1ccccc1)c1ccc(Oc2ccc(C#N)c(C#N)c2)cc1, the TGI [1] was over 100 µM, the TGI [2] was over 100 µM and the TGI [3] was over 100 µM. For the same compound, the TGI [4] was over 100 µM, the TGI [6] was over 100 µM and the TGI [7] was over 100 µM. For the same compound, the GI50 [8] was over 100 µM, the TGI [8] was over 100 µM and the TGI [9] was over 100 µM.

With CCc1ccccc1NC(=O)/C(N=O)=C(/C)O the TGI [1] was over 100 µM, the TGI [2] was over 100 µM and the TGI [3] was over 100 µM. It also gave a TGI [4] of over 100 µM, a TGI [6] of over 100 µM and a TGI [7] of over 100 µM. The TGI [8] was over 100 µM and the TGI [9] was over 100 µM.

O=S(=O)(/C=C/CS(=O)(=O)c1ccccc1)c1ccccc1 was tested, and the TGI [1] was 77.5 µM, the TGI [2] was 50 µM and the TGI [3] was over 100 µM. For the same compound, the TGI [4] was over 100 µM, the TGI [5] was 36.4 µM and the TGI [6] was 74 µM. It also gave a TGI [7] of over 100 µM, a TGI [8] of 57.1 µM and a TGI [9] of over 100 µM.

NC(=O)NC12CC3CC(CC(F)(C3)C1)C2 showed a TGI [1] of over 100 µM, a TGI [2] of over 100 µM and a TGI [3] of over 100 µM. The TGI [4] was over 100 µM, the TGI [6] was over 100 µM and the TGI [7] was over 100 µM. For the same compound, the TGI [8] was over 100 µM and the TGI [9] was over 100 µM.

With CC(=O)[CH-]C(=O)c1ccccc1.CC(=O)[CH-]C(=O)c1ccccc1.CC(=O)[CH-]C(=O)c1ccccc1.[In+3] the GI50 [1] was 22.8 µM, the TGI [1] was over 100 µM and the GI50 [2] was 30.9 µM. For the same compound, the TGI [2] was over 100 µM, the GI50 [3] was 11.6 µM and the TGI [3] was 49.4 µM. The GI50 [4] was over 100 µM, the TGI [4] was over 100 µM and the GI50 [7] was 25.5 µM. It also gave a TGI [7] of over 100 µM, a GI50 [9] of 28.8 µM and a TGI [9] of over 100 µM.

In the case of O=C(NC(=Nc1ccccc1)SCCSC(=Nc1ccccc1)NC(=O)c1cccs1)c1cccs1, the TGI [1] is reported as over 100 µM, the TGI [2] is reported as over 100 µM and the TGI [3] is reported as over 100 µM. For the same compound, the TGI [4] was over 100 µM, the TGI [6] was over 100 µM and the TGI [7] was over 100 µM. It also gave a TGI [8] of over 100 µM and a TGI [9] of over 100 µM.

Compound CCN(CC)c1oc(N(CC)CC)c(C(=O)Nc2ccccn2)c(=O)c1C(C)=O has a TGI [1] of over 100 µM, a TGI [2] of over 100 µM and a TGI [3] of over 100 µM. It also gave a TGI [4] of over 100 µM, a TGI [5] of over 100 µM and a TGI [6] of over 100 µM. It also gave a TGI [7] of over 100 µM and a TGI [9] of over 100 µM.

Work on CC1(C)CC2CC(CC(C)(C)C2=O)C1=O yielded a TGI [1] of over 100 µM, a TGI [2] of over 100 µM and a TGI [3] of over 100 µM. The TGI [4] was over 100 µM, the TGI [5] was over 100 µM and the TGI [6] was over 100 µM. The TGI [7] was over 100 µM, the TGI [8] was over 100 µM and the TGI [9] was over 100 µM.

C[C@]12CCC(=O)CC1CCCC2=O (some centres undefined) gave a TGI [1] of over 100 µM, a TGI [2] of over 100 µM and a TGI [3] of over 100 µM. The TGI [4] was over 100 µM, the TGI [6] was over 100 µM and the TGI [7] was over 100 µM. The TGI [8] was over 100 µM and the TGI [9] was over 100 µM.

COc1ccc(COC2CC(OC)OC(C)C2OC(=O)c2ccccc2)cc1 (centres undefined) showed a TGI [1] of over 100 µM, a TGI [2] of over 92.6 µM and a TGI [3] of over 100 µM. The TGI [4] was over 100 µM, the TGI [5] was 58.2 µM and the TGI [6] was 40.1 µM. For the same compound, the TGI [7] was over 81.8 µM, the TGI [8] was over 100 µM and the TGI [9] was over 91.1 µM.

Compound CCCN(CCC)C(=O)C(=O)c1c(N)[nH]n(-c2ccccc2)c1=O has a TGI [1] of over 100 µM, a TGI [2] of over 100 µM and a TGI [3] of over 100 µM. The TGI [4] was over 100 µM, the TGI [6] was over 100 µM and the TGI [7] was over 100 µM. For the same compound, the TGI [8] was over 100 µM and the TGI [9] was over 100 µM.

Work on CNC(=O)OCc1c2ccncc2c(C)c2c1[nH]c1ccc(OC)cc12 yielded a TGI [1] of 0.893 µM, a TGI [3] of 1.29 µM and a TGI [4] of 1.93 µM. It also gave a TGI [6] of 0.516 µM, a TGI [7] of 0.37 µM and a TGI [8] of 1.02 µM. It also gave a TGI [9] of 1.68 µM.

Compound O=C(O)c1nc(-c2ccc(Cl)c(Cl)c2)nc2ccc(Cl)cc12 has a TGI [1] of over 100 µM, a TGI [2] of over 100 µM and a TGI [3] of over 10 µM. The TGI [4] was over 100 µM, the TGI [5] was over 100 µM and the TGI [6] was over 100 µM. The TGI [7] was over 100 µM, the TGI [8] was over 100 µM and the TGI [9] was over 100 µM.

With CCc1cccc(C)c1NC(=O)C1=C(C)NC(C)=C(C(=O)Nc2c(C)cccc2CC)C1c1ccc2c(c1)OCO2 the TGI [1] was 32.1 µM, the TGI [2] was 31.4 µM and the TGI [3] was 51.2 µM. The TGI [4] was 96.4 µM, the TGI [6] was 72.8 µM and the TGI [7] was 39.9 µM. The TGI [8] was 33.8 µM and the TGI [9] was 45.6 µM.

COC1=C(C)C(=O)c2c(cc3c(c2O)C(C)(CCC=C(C)C)C(C)O3)C1=O (centres undefined) gave a TGI [1] of over 100 µM, a TGI [2] of 68.5 µM and a TGI [3] of over 100 µM. It also gave a TGI [4] of 34.5 µM, a TGI [5] of over 100 µM and a TGI [6] of over 100 µM. For the same compound, the TGI [7] was over 100 µM, the TGI [8] was over 78.8 µM and the TGI [9] was 30.1 µM.

Work on CN(C)C(=O)c1ccc([N+](=O)[O-])cc1 yielded a TGI [1] of over 100 µM, a TGI [2] of over 100 µM and a TGI [3] of over 100 µM. It also gave a TGI [4] of over 100 µM, a TGI [5] of over 100 µM and a TGI [6] of over 100 µM. The TGI [7] was over 100 µM, the TGI [8] was over 100 µM and the TGI [9] was over 100 µM.

Work on CCOC(=O)/C(O)=C(/C(=O)OC)c1ccc(Cl)cc1 yielded a TGI [1] of over 100 µM, a TGI [2] of over 100 µM and a TGI [3] of over 100 µM. It also gave a TGI [4] of over 100 µM, a TGI [6] of over 100 µM and a TGI [7] of over 100 µM. The TGI [8] was over 100 µM and the TGI [9] was over 100 µM.
